Blank lines part the entries; values can stand above or below the compound they belong to.
Tests used:
Format in all cases: cell-based
[1] = test system: UMUC5; experiment: 10-day proliferation (CTG), Compound B titration + 1000 nM Compound A, Bliss (Example 2); set-up: key to GDI: GDI, -100 to 100; 0 = cell number at T0
Procedure: (§1) A 10-day proliferation assay was performed in a panel of 5 MTAP-deficient and 2 wild type non-small cell lung and bladder cancer cell lines. Optimal cell seeding for all cell lines was determined by assessing the growth over a range of seeding densities in a 384-well format to identify conditions that permitted proliferation for 10 days. Cells were then plated at the optimal seeding density and treated with 20-point, two-fold dilution series of Compound B in combination with a 1000 nM fixed concentration of Compound A. Single agent titrations for Compound A and Compound B were included for comparison. Concentrations tested for Compound A and Compound B alone or in combination ranged from 0.038 nM to 20,000 nM. A plate of cells was harvested at the time of compound addition to quantify the number of cells at the start of the combination (T0). For cell quantification, the harvested cells were lysed with Promega CellTiter-Glo (CTG) reagent according to the manufacturer's protocol and the chemiluminescent signal was detected as described in Example 1 above. Cells were incubated with the drug combinations at 37° C. with 5% CO2 for 10 days. Cells were then lysed with CTG and the chemiluminescent signal was measured.
(§2) CTG values obtained after the 10-day treatment were background subtracted and expressed as a percent of the T0 value set at 100%. Data were plotted against compound concentration and fit with a four-parameter equation to generate single agent dose response curves. Percent inhibition was determined for each combination and single agent concentration compared to a DMSO control. In addition, the overall net growth or death of the cells was calculated and reported as a growth death index (GDI) value on a scale of −100 to 100 with the midpoint (0) being the number of cells at the beginning of the combination (T0).
(§3) Predicted inhibition was calculated using (Ea+Eb)−(Ea*Eb) where E equals the effect (inhibition) of each single agent (a and b). A difference between the observed inhibition percentage and the predicted inhibition percentage greater than 10% was considered synergistic. A Bliss score was only calculated for combinations eliciting >20% growth inhibition (GDI value <80). Since Bliss is calculated based on growth inhibition, scores within cytotoxic dose ranges may not accurately reflect synergistic cytotoxicity.
(§4) Synergy was measured across the Compound B titration with 1000 nM Compound A by Bliss Independence analysis. Bliss scores >10 are indicated by “*” and are considered synergistic. […] Synergy as reported using Bliss may be underrepresented within cytotoxic dose ranges. Growth death index values are shown for the combination titration and each single agent Compound A (Cmpd A) and Compound B (Cmpd B) on a scale of −100 to 100 with the midpoint (0) being the number of cells at the beginning of the combination (T0).

[2] = test system: TCCSUP; experiment: 10-day proliferation (CTG), equimolar Compound A + Compound B (Example 1); conditions: Homo sapiens, TCC-SUP, 240 h, 10 days, single agent or 1:1 combo; for IC100: read-out: gIC100, heading: gIC100; for IC30: read-out: gIC30; for IC40: read-out: gIC40; for IC50: read-out: gIC50; for IC60: read-out: gIC60; for IC70: read-out: gIC70; for IC80: read-out: gIC80; for IC90: read-out: gIC90
Procedure: (§5) A 10-day proliferation assay was performed in a panel of 5 MTAP-deficient and 2 wild type non-small cell lung and bladder cancer cell lines. Optimal cell seeding for all cell lines was determined by assessing the growth over a range of seeding densities in a 384-well format to identify conditions that permitted proliferation for 10 days. Cells were then plated at the optimal seeding density and treated with 20-point, two-fold dilution series of Compound A, sovilnesib (“Compound B”), or an equimolar combination of Compound A and Compound B. Concentrations tested for Compound A and Compound B alone or in combination ranged from 0.038 nM to 20,000 nM. A plate of cells was harvested at the time of compound addition to quantify the number of cells at the start of the combination (T0). For cell quantification, the harvested cells were lysed with Promega CellTiter-Glo (CTG) reagent according to the manufacturer's protocol and the chemiluminescent signal was detected on a Synergy Neo plate reader. CTG estimates cell number through detection of cellular ATP levels. Cells were incubated with the drug combinations at 37° C. with 5% CO2 for 10 days. Cells were then lysed with CTG and the chemiluminescent signal was measured.
(§6) CTG values obtained after the 10-day treatment were background subtracted and expressed as a percent of the T0 value. Data were plotted against compound concentration and fit with a four-parameter equation to generate dose response curves for each single agent and the equimolar combination. Growth ICx (gICx) values ranging from gIC30 to gIC100 were interpolated from the fitted curves. Synergistic growth inhibition was assessed by determination of Combination Index (CI) values at these various points across the titration using the mutually non-exclusive equation [Chou, 1983; Chou, 1981] shown below where A equals the gIC value of Compound A, B equals the gICx value of Compound B, and A+B or B+A equals the gICx value of the equimolar combination. A Combination Index value less than 1.0 was considered synergistic.
(§7) Synergy was measured for equimolar combinations of Compound A and Compound B utilizing the mutually non-exclusive Combination Index equation across gICx values ranging from gIC30-gIC100. Combination Index values are shown for: NCI-H520 (4A) and TCCSUP (41B).

[3] = test system: NCI-H520; experiment: as above; conditions: Homo sapiens, NCI-H520, 240 h, 10 days, single agent or 1:1 combo; for IC30: read-out: gIC30; for IC40: read-out: gIC40; for IC50: read-out: gIC50; for IC60: read-out: gIC60; for IC70: read-out: gIC70; for IC80: read-out: gIC80; for IC90: read-out: gIC90; for IC100: read-out: gIC100
Procedure: as §5, §6, §7

[4] = test system: SW900; experiment: 10-day proliferation (CTG), Compound B titration + 1000 nM Compound A, Bliss (Example 2); set-up: key: GDI, -100 to 100; 0 = cell number at T0
Procedure: as §1, §2, §3, §4

[5] = test system: NCI-H838; experiment: as above; set-up: key: GDI, -100 to 100; 0 = cell number at T0
Procedure: as §1, §2, §3, §4

[6] = Cmpd B 0.04 nM, combo: + 1000 nM Cmpd A
[7] = Cmpd B 0.1 nM, combo: + 1000 nM Cmpd A
[8] = Cmpd B 0.2 nM, combo: + 1000 nM Cmpd A
[9] = Cmpd B 0.3 nM, combo: + 1000 nM Cmpd A
[10] = Cmpd B 0.6 nM, combo: + 1000 nM Cmpd A
[11] = Cmpd B 1.2 nM, combo: + 1000 nM Cmpd A
[12] = Cmpd B 2.4 nM, combo: + 1000 nM Cmpd A
[13] = Cmpd B 4.9 nM, combo: + 1000 nM Cmpd A
[14] = Cmpd B 9.8 nM, combo: + 1000 nM Cmpd A
[15] = Cmpd B 19.5 nM, combo: + 1000 nM Cmpd A
[16] = Cmpd B 39.1 nM, combo: + 1000 nM Cmpd A
[17] = Cmpd B 78.1 nM, combo: + 1000 nM Cmpd A
[18] = Cmpd B 156.3 nM, combo: + 1000 nM Cmpd A
[19] = Cmpd B 312.5 nM, combo: + 1000 nM Cmpd A
[20] = Cmpd B 625 nM, combo: + 1000 nM Cmpd A
[21] = Cmpd B 1250 nM, combo: + 1000 nM Cmpd A
[22] = Cmpd B 2500 nM, combo: + 1000 nM Cmpd A
[23] = Cmpd B 5000 nM, combo: + 1000 nM Cmpd A
[24] = Cmpd B 10000 nM, combo: + 1000 nM Cmpd A
[25] = Cmpd B 20000 nM, combo: + 1000 nM Cmpd A

IC50 [3]: 20 µM
IC90 [3]: 20 µM
Compound: Nc1nc(=O)n(-c2ccccc2Cl)c2nc(C(F)(F)F)ccc12 [Compound A]
GDI ([1]; single agent, 1000 nM Cmpd A): 59
IC100 [2]: > 20 µM
IC30 [2]: 20 µM
IC40 [2]: 20 µM
IC50 [2]: 20 µM
IC60 [2]: 20 µM
IC70 [2]: 20 µM
IC80 [2]: 20 µM
IC90 [2]: 20 µM
IC30 [3]: 20 µM
IC40 [3]: 20 µM
IC60 [3]: 20 µM
IC70 [3]: 20 µM
IC80 [3]: 20 µM
IC100 [3]: 20 µM
GDI ([4]; single agent, 1000 nM Cmpd A): 99
GDI ([5]; single agent, 1000 nM Cmpd A): 52

IC50 [3]: 5.8 µM
IC90 [3]: 15.5 µM
Compound: Cc1cc(NC(=O)c2ccc(NS(=O)(=O)CCO)cc2N2CCC3(CC2)CC3)nc(N2CCC(F)(F)CC2)n1 [Compound B, N-(2-(4,4-difluoropiperidin-1-yl)-6-methylpyrimidin-4-yl)-4-((2-hydroxyethyl)sulfonamido)-2-(6-azaspiro[2.5]octan-6-yl)benzamide]
GDI [1, 6]: 97
GDI [1, 7]: 100
GDI [1, 8]: 100
GDI [1, 9]: 100
GDI [1, 10]: 100
GDI [1, 11]: 96
GDI [1, 12]: 100
GDI [1, 13]: 99
GDI [1, 14]: 100
GDI [1, 15]: 100
GDI [1, 16]: 100
GDI [1, 17]: 100
GDI [1, 18]: 75
GDI [1, 19]: 26
GDI [1, 20]: 17
GDI [1, 21]: 16
GDI [1, 22]: 15
GDI [1, 23]: 5
GDI [1, 24]: −87
GDI [1, 25]: −91
single agent dose sufficient to maximally inhibit cell growth ([1]; single agent): 5 µM
IC100 [2]: > 20 µM
IC30 [2]: 0.091 µM
IC40 [2]: 0.107 µM
IC50 [2]: 0.126 µM
IC60 [2]: 0.15 µM
IC70 [2]: 0.183 µM
IC80 [2]: 0.24 µM
IC90 [2]: 0.405 µM
IC30 [3]: 2.81 µM
IC40 [3]: 4.16 µM
IC60 [3]: 7.73 µM
IC70 [3]: 9.98 µM
IC80 [3]: 12.5 µM
IC100 [3]: 18.7 µM
GDI [4, 6]: 100
GDI [4, 7]: 100
GDI [4, 8]: 100
GDI [4, 9]: 100
GDI [4, 10]: 100
GDI [4, 11]: 100
GDI [4, 12]: 99
GDI [4, 13]: 100
GDI [4, 14]: 100
GDI [4, 15]: 100
GDI [4, 16]: 99
GDI [4, 17]: 100
GDI [4, 18]: 100
GDI [4, 19]: 100
GDI [4, 20]: 86
GDI [4, 21]: 89
GDI [4, 22]: 83
GDI [4, 23]: 75
GDI [4, 24]: 64
GDI [4, 25]: 28
GDI [5, 6]: 100
GDI [5, 7]: 100
GDI [5, 8]: 100
GDI [5, 9]: 100
GDI [5, 10]: 100
GDI [5, 11]: 100
GDI [5, 12]: 100
GDI [5, 13]: 100
GDI [5, 14]: 100
GDI [5, 15]: 100
GDI [5, 16]: 100
GDI [5, 17]: 100
GDI [5, 18]: 74
GDI [5, 19]: 65
GDI [5, 20]: 55
GDI [5, 21]: 48
GDI [5, 22]: 58
GDI [5, 23]: 87
GDI [5, 24]: 61
GDI [5, 25]: −1
